{
  "source": "patent US12377110B2",
  "about": "“Fospropofol methods and compositions” (Epalex Corporation, priority 2019, dated 2025)",
  "assay": "Study A16 Part 1: PK of single ascending oral doses of fospropofol disodium (200 to 2000 mg), fasted healthy adults",
  "format": "in vivo, human",
  "conditions": "for Tmax: read-out: Fospropofol Tmax; for AUC(0-t): read-out: Fospropofol AUC0-T; for AUC(0-inf): read-out: Fospropofol AUC0-∞; for half-life: read-out: Fospropofol t1/2 (converted)",
  "procedure": "Part 1 of Study A16 was a double-blind, randomized, placebo-controlled study to investigate the safety-tolerability and PK of oral administration of single ascending doses of fospropofol disodium to healthy adult male and female volunteers.\nSubjects were healthy adults (age 18-55 years inclusive, BMI 18-29.9 kg/m^2). Separate cohorts of 12 subjects each were randomized to receive fospropofol disodium at doses of 200, 400, 800, 1000, 1200, 1600, or 2000 mg (n=10 per cohort) or matching placebo (n=2 per cohort).\nSubjects were admitted to the clinical unit for an overnight fast (Day −1), administered study drug on Day 1, and remained in the clinical unit until Day 2.\nFospropofol disodium was formulated as powder in an HPMC capsule, each capsule containing 200 mg of fospropofol disodium (weight adjusted for water content). Placebo was administered as an appropriate number of matching capsules.\nBased on PK results from the early cohorts, sampling times were optimized beginning with Cohort 3 (800 mg) to preclose, 5, 10, 15, 20, 25, 30, 37, and 45, minutes and 1, 2, 4, 6, and 9 hours after closing.",
  "key": {"[1]": {"conditions": "both sexes, human, plasma, oral fospropofol disodium 200 mg, mean"}, "[2]": {"conditions": "both sexes, human, plasma, oral fospropofol disodium 400 mg, mean"}, "[3]": {"conditions": "both sexes, human, plasma, oral fospropofol disodium 800 mg, mean"}, "[4]": {"conditions": "both sexes, human, plasma, oral fospropofol disodium 1000 mg, mean"}, "[5]": {"conditions": "both sexes, human, plasma, oral fospropofol disodium 1200 mg, mean"}, "[6]": {"conditions": "both sexes, human, plasma, oral fospropofol disodium 1600 mg, mean"}, "[7]": {"conditions": "both sexes, human, plasma, oral fospropofol disodium 2000 mg, mean"}, "[8]": {"conditions": "oral fospropofol disodium 1200 mg, Fasted (Cohort 5), n = 10, mean"}, "[9]": {"conditions": "subjects 301-312 (800 mg cohort)"}},
  "note": "Like-named read-outs stand apart in the source and are kept apart here.",
  "data": [
    {"smiles": "CC(C)c1cccc(C(C)C)c1OCOP(=O)(O)O", "note": "[fospropofol, (2,6-diisopropylphenoxy)methyl dihydrogen phosphate]", "values": [
      {"measurement": "Tmax", "setting": "both sexes, human, plasma, po, 2000 mg, oral fospropofol disodium 2000 mg, median", "result": 22.8, "unit": "min"},
      {"measurement": "AUC(0-t)", "setting": "[1]", "result": 856, "unit": "ng·h/mL"},
      {"measurement": "AUC(0-inf)", "setting": "[1]", "result": 882, "unit": "ng·h/mL"},
      {"measurement": "half-life", "setting": "[1]", "result": 12.6, "unit": "min"},
      {"measurement": "AUC(0-t)", "setting": "[2]", "result": 2200, "unit": "ng·h/mL"},
      {"measurement": "AUC(0-inf)", "setting": "[2]", "result": 2230, "unit": "ng·h/mL"},
      {"measurement": "half-life", "setting": "[2]", "result": 14.4, "unit": "min"},
      {"measurement": "AUC(0-t)", "setting": "[3]", "result": 3290, "unit": "ng·h/mL"},
      {"measurement": "AUC(0-inf)", "setting": "[3]", "result": 3360, "unit": "ng·h/mL"},
      {"measurement": "half-life", "setting": "[3]", "result": 16.2, "unit": "min"},
      {"measurement": "AUC(0-t)", "setting": "[4]", "result": 4700, "unit": "ng·h/mL"},
      {"measurement": "AUC(0-inf)", "setting": "[4]", "result": 4840, "unit": "ng·h/mL"},
      {"measurement": "half-life", "setting": "[4]", "result": 17.4, "unit": "min"},
      {"measurement": "AUC(0-t)", "setting": "[5]", "result": 4400, "unit": "ng·h/mL"},
      {"measurement": "AUC(0-inf)", "setting": "[5]", "result": 4500, "unit": "ng·h/mL"},
      {"measurement": "half-life", "setting": "[5]", "result": 20.4, "unit": "min"},
      {"measurement": "AUC(0-t)", "setting": "[6]", "result": 6090, "unit": "ng·h/mL"},
      {"measurement": "AUC(0-inf)", "setting": "[6]", "result": 6300, "unit": "ng·h/mL"},
      {"measurement": "half-life", "setting": "[6]", "result": 21, "unit": "min"},
      {"measurement": "AUC(0-t)", "setting": "[7]", "result": 10800, "unit": "ng·h/mL"},
      {"measurement": "AUC(0-inf)", "setting": "[7]", "result": 11000, "unit": "ng·h/mL"},
      {"measurement": "half-life", "setting": "[7]", "result": 22.2, "unit": "min"},
      {"measurement": "Fospropofol concentration relative to Cmax", "setting": "by 2 hours after dosing", "result": "less than 10 % of Cmax"},
      {"measurement": "Fospropofol AUC0-T/mg FOSP DiNa", "setting": "dose 200 mg FOSPDiNa", "result": "4.28 (ng · h/mL)/mg"},
      {"measurement": "Fospropofol AUC0-∞/mg FOSP DiNa", "setting": "dose 200 mg FOSPDiNa", "result": "4.41 (ng · h/mL)/mg"},
      {"measurement": "Fospropofol Cmax/mg FOSP DiNa", "setting": "dose 200 mg FOSPDiNa", "result": "9.89 (ng/mL)/mg"},
      {"measurement": "Fospropofol AUC0-T/mg FOSP DiNa", "setting": "dose 400 mg FOSPDiNa", "result": "5.51 (ng · h/mL)/mg"},
      {"measurement": "Fospropofol AUC0-∞/mg FOSP DiNa", "setting": "dose 400 mg FOSPDiNa", "result": "5.58 (ng · h/mL)/mg"},
      {"measurement": "Fospropofol Cmax/mg FOSP DiNa", "setting": "dose 400 mg FOSPDiNa", "result": "11.15 (ng/mL)/mg"},
      {"measurement": "Fospropofol AUC0-T/mg FOSP DiNa", "setting": "dose 800 mg FOSPDiNa", "result": "4.11 (ng · h/mL)/mg"},
      {"measurement": "Fospropofol AUC0-∞/mg FOSP DiNa", "setting": "dose 800 mg FOSPDiNa", "result": "4.20 (ng · h/mL)/mg"},
      {"measurement": "Fospropofol Cmax/mg FOSP DiNa", "setting": "dose 800 mg FOSPDiNa", "result": "7.55 (ng/mL)/mg"},
      {"measurement": "Fospropofol AUC0-T/mg FOSP DiNa", "setting": "dose 1000 mg FOSPDiNa", "result": "4.70 (ng · h/mL)/mg"},
      {"measurement": "Fospropofol AUC0-∞/mg FOSP DiNa", "setting": "dose 1000 mg FOSPDiNa", "result": "4.85 (ng · h/mL)/mg"},
      {"measurement": "Fospropofol Cmax/mg FOSP DiNa", "setting": "dose 1000 mg FOSPDiNa", "result": "8.24 (ng/mL)/mg"},
      {"measurement": "Fospropofol AUC0-T/mg FOSP DiNa", "setting": "dose 1200 mg FOSPDiNa", "result": "3.67 (ng · h/mL)/mg"},
      {"measurement": "Fospropofol AUC0-∞/mg FOSP DiNa", "setting": "dose 1200 mg FOSPDiNa", "result": "3.75 (ng · h/mL)/mg"},
      {"measurement": "Fospropofol Cmax/mg FOSP DiNa", "setting": "dose 1200 mg FOSPDiNa", "result": "5.93 (ng/mL)/mg"},
      {"measurement": "Fospropofol AUC0-T/mg FOSP DiNa", "setting": "dose 1600 mg FOSPDiNa", "result": "3.81 (ng · h/mL)/mg"},
      {"measurement": "Fospropofol AUC0-∞/mg FOSP DiNa", "setting": "dose 1600 mg FOSPDiNa", "result": "3.94 (ng · h/mL)/mg"},
      {"measurement": "Fospropofol Cmax/mg FOSP DiNa", "setting": "dose 1600 mg FOSPDiNa", "result": "6.40 (ng/mL)/mg"},
      {"measurement": "Fospropofol AUC0-T/mg FOSP DiNa", "setting": "dose 2000 mg FOSPDiNa", "result": "5.41 (ng · h/mL)/mg"},
      {"measurement": "Fospropofol AUC0-∞/mg FOSP DiNa", "setting": "dose 2000 mg FOSPDiNa", "result": "5.49 (ng · h/mL)/mg"},
      {"measurement": "Fospropofol Cmax/mg FOSP DiNa", "setting": "dose 2000 mg FOSPDiNa", "result": "8.54 (ng/mL)/mg"},
      {"measurement": "AUC", "setting": "female, human, plasma, oral, 800 mg, females only (800 mg cohort), Mean, read-out: Fospropofol Auc1", "result": 3050, "unit": "ng·h/mL"},
      {"measurement": "AUC", "setting": "female, human, plasma, oral, 800 mg, females only (800 mg cohort), Mean, read-out: Fospropofol Auc2", "result": 3710, "unit": "ng·h/mL"},
      {"measurement": "AUC", "setting": "female, human, plasma, oral, 800 mg, females only (800 mg cohort), Mean, read-out: Fospropofol Auc4", "result": 3870, "unit": "ng·h/mL"},
      {"measurement": "Cmax", "setting": "female, human, plasma, oral, 800 mg, females only (800 mg cohort), Mean, read-out: Fospropofol Cmax", "result": 6730, "unit": "ng/mL"},
      {"measurement": "Tmax", "setting": "female, human, plasma, oral, 800 mg, females only (800 mg cohort), Mean", "result": 22.2, "unit": "min"},
      {"measurement": "AUC", "setting": "female, human, plasma, oral, 800 mg, females only (800 mg cohort), individual subjects (Subject No. in c0), read-out: Fospropofol Auc1", "result": 4160, "unit": "ng·h/mL"},
      {"measurement": "AUC", "setting": "female, human, plasma, oral, 800 mg, females only (800 mg cohort), individual subjects (Subject No. in c0), read-out: Fospropofol Auc2", "result": 5000, "unit": "ng·h/mL"},
      {"measurement": "AUC", "setting": "female, human, plasma, oral, 800 mg, females only (800 mg cohort), individual subjects (Subject No. in c0), read-out: Fospropofol Auc4", "result": 5160, "unit": "ng·h/mL"},
      {"measurement": "Tmax", "setting": "female, human, plasma, oral, 800 mg, females only (800 mg cohort), individual subjects (Subject No. in c0)", "result": 30, "unit": "min"},
      {"measurement": "Fospropofol Auc1 CV (%)", "setting": "females only (800 mg cohort)", "result": 23.3, "unit": "%"},
      {"measurement": "Fospropofol Auc2 CV (%)", "setting": "females only (800 mg cohort)", "result": 23.1, "unit": "%"},
      {"measurement": "Fospropofol Auc4 CV (%)", "setting": "females only (800 mg cohort)", "result": 23.3, "unit": "%"},
      {"measurement": "Fospropofol Cmax CV (%)", "setting": "females only (800 mg cohort)", "result": 32.2, "unit": "%"},
      {"measurement": "Fospropofol Tmax CV (%)", "setting": "females only (800 mg cohort)", "result": 27.3, "unit": "%"},
      {"measurement": "Fospropofol CL/F", "setting": "oral fospropofol disodium 200 mg, mean", "result": 277, "unit": "L/h"},
      {"measurement": "Fospropofol CL/F", "setting": "oral fospropofol disodium 400 mg, mean", "result": 211, "unit": "L/h"},
      {"measurement": "Fospropofol CL/F", "setting": "oral fospropofol disodium 800 mg, mean", "result": 254, "unit": "L/h"},
      {"measurement": "Fospropofol CL/F", "setting": "oral fospropofol disodium 1000 mg, mean", "result": 229, "unit": "L/h"},
      {"measurement": "Fospropofol AUC0-T", "setting": "[8]", "result": 4399, "unit": "ng·h/mL"},
      {"measurement": "Fospropofol CL/F", "setting": "[8]", "result": 288, "unit": "L/h"},
      {"measurement": "Fospropofol CL/F", "setting": "oral fospropofol disodium 1200 mg, mean", "result": 288, "unit": "L/h"},
      {"measurement": "Fospropofol CL/F", "setting": "oral fospropofol disodium 1600 mg, mean", "result": 270, "unit": "L/h"},
      {"measurement": "Fospropofol CL/F", "setting": "oral fospropofol disodium 2000 mg, mean", "result": 204, "unit": "L/h"},
      {"measurement": "Fospropofol AUC1 CV (%)", "setting": "[9]", "result": 23.6, "unit": "%"},
      {"measurement": "Fospropofol AUC2 CV (%)", "setting": "[9]", "result": 26.0, "unit": "%"},
      {"measurement": "Fospropofol AUC4 CV (%)", "setting": "[9]", "result": 27.2, "unit": "%"},
      {"measurement": "Fospropofol Cmax CV (%)", "setting": "[9]", "result": 30.7, "unit": "%"},
      {"measurement": "Fospropofol Tmax CV (%)", "setting": "[9]", "result": 29.2, "unit": "%"}
    ]}
  ]
}
